Patent US20230219942A1, “COMPOUNDS COMPRISING A THREE RING CORE AS PD-1/PD-L1 BLOCKERS” (RELIVE THERAPEUTICS INC., priority 2020, published 2023)
Like-named read-outs stand apart in the source and are kept apart here.

Key:
[1] = molecular target: T1, PD-1/PD-L1 interaction (Homo sapiens, UniProt Q9NZQ7); assay: Cisbio PD-1/PD-L1 Homogeneous Time-Resolved Fluorescence (HTRF) binding assay; settings: read-out: Reported IC50
T1 construct: Tag1 or Tag2 (undisclosed kit tag); purchased Cisbio
Description: The ability of compounds of the disclosure to inhibit the PD-1/PD-L1 interaction was investigated using a Cisbio PD-1/PD-L1 Homogeneous Time-Resolved Fluorescence (HTRF) binding assay (https://ca.cisbio.net/human-pd1-pd-l1-biochemical-binding-assay-44666).
With the assay, the interaction between PD-L1 and PD-1 is detected by using anti-Tag1 labeled with Europium (HTRF donor) and anti-Tag2 labeled with XL665 (HTRF acceptor). When the donor and acceptor antibodies are brought into close proximity due to PD-L1 and PD-1 binding, excitation of the donor antibody triggers fluorescence resonance energy transfer (FRET) towards the acceptor antibody, which in turn emits specifically at 665 nm. This specific signal is directly proportional to the extent of PD-1/PD-L1 interaction. Thus, a compound blocking the PD-1/PD-L1 interaction causes a reduction in the HTRF signal.
The assay was carried out in accordance with the product insert.

[2] = molecular target: PD-1/PD-L1 (Homo sapiens, UniProt Q9NZQ7); settings: Table 11; known small molecule PD-1/PD-L1 blockers; cited from earlier work
[3] = Table 10, * n = 7, median, P1 and P2 are different isomers
[4] = Table 10, same result in μM, P1 and P2 are different isomers

T1 sequence (Q9NZQ7 19-238 limits assumed): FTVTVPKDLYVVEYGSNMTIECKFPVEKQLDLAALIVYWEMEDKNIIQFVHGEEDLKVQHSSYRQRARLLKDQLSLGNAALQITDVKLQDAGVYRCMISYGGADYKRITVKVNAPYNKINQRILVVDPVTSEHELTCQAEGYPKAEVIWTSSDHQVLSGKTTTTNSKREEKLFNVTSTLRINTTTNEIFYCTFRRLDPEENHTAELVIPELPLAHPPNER
Chain of PD-1/PD-L1 (Q9NZQ7 19-290): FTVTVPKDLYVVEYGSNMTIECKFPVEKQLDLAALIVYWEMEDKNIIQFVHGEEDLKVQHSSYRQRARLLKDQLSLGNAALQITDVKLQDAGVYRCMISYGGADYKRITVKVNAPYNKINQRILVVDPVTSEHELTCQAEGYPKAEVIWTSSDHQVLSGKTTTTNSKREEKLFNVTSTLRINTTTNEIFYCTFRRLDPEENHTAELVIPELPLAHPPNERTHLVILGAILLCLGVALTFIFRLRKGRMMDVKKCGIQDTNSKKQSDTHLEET

Row | Structure (SMILES) | IC50 ([1]; Table 9) [µM] | IC50 ([1]; Table 9, same result in μM) [µM] | IC50 [1, 3] [µM] | IC50 [1, 4] [µM] | KD/IC50 [2] [nM]
1 | COc1ccc(C(=O)N2CCN(Cc3csc(NC[C@@H]4CCCN4Cc4ccc(Br)cc4)n3)CC2)cc1 [Compound A401] | 1.2 | 1.2 |  |  | 
2 | COc1ccc(C(=O)N2CCN(Cc3csc(NC[C@@H]4CCCN4Cc4ccc(Br)cc4)n3)CC2)cc1OC [Compound A402] | 0.62 | 0.62 |  |  | 
3 | COc1cccc(C(=O)N2CCN(Cc3csc(NC[C@@H]4CCCN4Cc4ccc(Br)cc4)n3)CC2)c1 [Compound A403] | 0.53 | 0.53 |  |  | 
4 | O=C(c1ccc2c(c1)OCO2)N1CCN(Cc2csc(NC[C@@H]3CCCN3Cc3ccc(Br)cc3)n2)CC1 [Compound A404] | 0.88 | 0.88 |  |  | 
5 | O=C(c1ccc(=O)[nH]c1)N1CCN(Cc2csc(NC[C@@H]3CCCN3Cc3ccc(Br)cc3)n2)CC1 [Compound A405] | 0.247 | 0.25 |  |  | 
6 | Cn1cnc2cc(C(=O)N3CCN(Cc4csc(NCC5CCCN5Cc5ccc(Br)cc5)n4)CC3)ccc21 (stereo not shown) [Compound A406] | 0.98 | 0.98 |  |  | 
7 | Cn1ncc2cc(C(=O)N3CCN(Cc4csc(NC[C@@H]5CCCN5Cc5ccc(Br)cc5)n4)CC3)ccc21 [Compound A407] | 0.49 | 0.49 |  |  | 
8 | COc1cc(CN2CCN(Cc3csc(NCC4CCCN4Cc4ccc(Br)cc4)n3)CC2)cc(OC)c1OC (stereo not shown) [Compound A501] | 0.74 | 0.74 |  |  | 
9 | CC(=O)N1CCN(Cc2csc(NC[C@@H]3CCCN3Cc3ccc(Br)cc3)n2)CC1 [Compound A503] | 2.6 | 0.26 |  |  | 
10 | O=C(C1CC1)N1CCN(Cc2csc(NC[C@@H]3CCCN3Cc3ccc(Br)cc3)n2)CC1 [Compound A504] | 2 | 2 |  |  | 
11 | COc1cc(CN2CCN(Cc3csc(NCC4CCCN4Cc4ccccc4)n3)CC2)cc(OC)c1OC (stereo not shown) [Compound A505] | > 50 | > 50 |  |  | 
12 | COc1cc(CN2CCN(Cc3csc(NCC4CCCN4CC4CC4)n3)CC2)cc(OC)c1OC (stereo not shown) [Compound A506] | > 50 | > 50 |  |  | 
13 | COc1cc(CN2CCN(Cc3csc(NCC4CCCN4C(C)c4ccc(Br)cc4)n3)CC2)cc(OC)c1OC (stereo not shown) [Compound A601] | 0.159 | 0.16 |  |  | 
14 | COc1cc(CN2CCN(Cc3csc(NCC4CCCN4C(C)c4ccc(Br)cc4)n3)CC2)cc(OC)c1OC (stereo not shown) [Compound A602] | 0.324 | 0.32 |  |  | 
15 | COc1cc(C(=O)N2CCN([C@H](C)c3csc(NC[C@@H]4CCCN4Cc4ccc(Br)cc4)n3)CC2)cc(OC)c1OC [Compound A603] | 0.11 | 0.11 |  |  | 
16 | COc1cc(C(=O)N2CCN([C@@H](C)c3csc(NC[C@@H]4CCCN4Cc4ccc(Br)cc4)n3)CC2)cc(OC)c1OC [Compound A604] | 0.215 | 0.22 |  |  | 
17 | COc1cc(CN2CCN(Cc3csc(NCC4CCCN4C(=O)c4ccc(Br)cc4)n3)CC2)cc(OC)c1OC (stereo not shown) [Compound A605] | > 50 | > 50 |  |  | 
18 | COc1cc(C(=O)N2CCN(Cc3csc(N(C)C[C@@H]4CCCN4Cc4ccc(Br)cc4)n3)CC2)cc(OC)c1OC [Compound A606] | > 50 | > 50 |  |  | 
19 | COc1cc(C(=O)N2C[C@H](C)N(Cc3csc(NC[C@@H]4CCCN4Cc4ccc(Br)cc4)n3)C[C@@H]2C)cc(OC)c1OC [Compound A607] | 0.096 | 0.096 |  |  | 
20 | COc1cc(C(=O)N2C[C@@H](C)N(Cc3csc(NC[C@@H]4CCCN4Cc4ccc(Br)cc4)n3)C[C@H]2C)cc(OC)c1OC [Compound A608] | 1.6 | 1.6 |  |  | 
21 | COc1cc(C(=O)N2CCN(Cc3nsc(NC[C@@H]4CCCN4Cc4ccc(Br)cc4)n3)CC2)cc(OC)c1OC [Compound A702] |  |  | 0.015 | 0.015 | 
22 | COc1cc(C(=O)C2CCN(Cc3csc(NC[C@@H]4CCCN4Cc4ccc(Br)cc4)n3)CC2)cc(OC)c1OC [Compound A703] | 0.109 | 0.11 |  |  | 
23 | COc1cc(C(=O)N2CCN(Cc3csc(NC[C@@H]4C[C@@H](O)CN4Cc4ccc(Br)cc4)n3)CC2)cc(OC)c1OC [Compound A704] | 0.089 | 0.089 |  |  | 
24 | COc1cc(C(=O)N2CCN(Cc3csc(NC[C@@H]4C[C@@H](OC)CN4Cc4ccc(Br)cc4)n3)CC2)cc(OC)c1OC [Compound A705] | 0.171 | 0.17 |  |  | 
25 | COc1cc(C(=O)N2CCN(Cc3csc(NC[C@H]4CCCN4Cc4ccc(Br)cc4)n3)CC2)cc(OC)c1OC [Compound A706] | 13 | 13 |  |  | 
26 | CS(=O)(=O)c1cncc(COc2cc(OCc3cccc(-c4cccc(-c5ccc6c(c5)C[C@@H](N)C6)c4Cl)c3Cl)c(Br)cc2CN2CCCC[C@H]2C(=O)O)c1 [GS-4224, Example A] |  |  |  |  | 0.09
27 | Cc1c(Nc2nc(C(F)F)nc3cc(CN4CC[C@](C)(O)C4)cnc23)cccc1-c1cccc(-c2nc3cc(CN4CCC(C(=O)O)CC4)cc(C#N)c3o2)c1C [INB086550] |  |  |  |  | <10

Second part, led by results:

Row | IC50 ([1]; Table 9) [µM] | IC50 ([1]; Table 9, same result in μM) [µM] | IC50 [1, 3] [µM] | IC50 [1, 4] [µM] | Structure (SMILES) | KD/IC50 [2] [nM]
28 | 0.205 | 0.21 |  |  | COc1cc(C(=O)N2CCN(Cc3csc(NC[C@@H]4CCCN4Cc4ccc(Cl)cc4)n3)CC2)cc(OC)c1OC [Compound B313] | 
29 |  |  | 0.018 | 0.018 | COc1cc(C(=O)N2CCN(Cc3nsc(NC[C@@H]4CCCN4Cc4ccc(Cl)cc4)n3)CC2)cc(OC)c1OC [Compound B314] | 
30 | 0.353 | 0.35 |  |  | COc1cc(C(=O)N2CCN(Cc3csc(NC[C@@H]4CCCN4Cc4ccc(C(F)F)cc4)n3)CC2)cc(OC)c1OC [Compound B315] | 
31 |  |  | 0.025 | 0.025 | COc1cc(C(=O)N2CCN(Cc3nsc(NC[C@@H]4CCCN4Cc4ccc(C(F)F)cc4)n3)CC2)cc(OC)c1OC [Compound B316] | 
32 |  |  | 0.018 | 0.018 | COc1cc(C(=O)N2CCN(Cc3nsc(NC[C@@H]4CCCN4Cc4ccc(C(F)(F)F)cc4)n3)CC2)cc(OC)c1OC [Compound B317] | 
33 | 0.092 | 0.092 |  |  | COc1cc(C(=O)N2CCN(Cc3csc(NC[C@@H]4CCCN4Cc4ccc(Br)c(F)c4)n3)CC2)cc(OC)c1OC [Compound B318] | 
34 |  |  | 0.015 | 0.015 | COc1cc(C(=O)N2CCN(Cc3nsc(NC[C@@H]4CCCN4Cc4ccc(Br)c(F)c4)n3)CC2)cc(OC)c1OC [Compound B319] | 
35 | > 50 | > 50 |  |  | Cc1ccc(C(=O)N2CCN(Cc3csc(NC[C@@H]4CCCN4Cc4ccc(Br)cc4)n3)CC2)cc1 [Compound B408] | 
36 |  |  | 0.65 | 0.65 | Cc1ccc(C(=O)N2CCN(Cc3nsc(NC[C@@H]4CCCN4Cc4ccc(Br)cc4)n3)CC2)cc1 [Compound B409] | 
37 | > 5 | > 5 |  |  | O=C(c1ccc(Cl)cc1)N1CCN(Cc2csc(NCC3CCCN3Cc3ccc(Br)cc3)n2)CC1 (stereo not shown) [Compound B410] | 
38 |  |  | 1.02 | 1 | O=C(c1ccc(Cl)cc1)N1CCN(Cc2nsc(NC[C@@H]3CCCN3Cc3ccc(Br)cc3)n2)CC1 [Compound B411] | 
39 |  |  | 4.4 | 4.4 | O=C(c1ccccc1)N1CCN(Cc2nsc(NC[C@@H]3CCCN3Cc3ccc(Br)cc3)n2)CC1 [Compound B412] | 
40 |  |  | 0.44 | 0.44 | O=C(c1ccc(=O)[nH]c1)N1CCN(Cc2nsc(NC[C@@H]3CCCN3Cc3ccc(Br)cc3)n2)CC1 [Compound B413] | 
41 | > 5 | > 5 |  |  | Cn1cc(C(=O)N2CCN(Cc3csc(NC[C@@H]4CCCN4Cc4ccc(Br)cc4)n3)CC2)ccc1=O [Compound B414] | 
42 |  |  | 0.216 | 0.22 | Cn1cc(C(=O)N2CCN(Cc3nsc(NC[C@@H]4CCCN4Cc4ccc(Br)cc4)n3)CC2)ccc1=O [Compound B415] | 
43 |  |  | 0.028 | 0.028 | COc1cc(C(=O)N2CCN(Cc3cc(NC[C@@H]4CCCN4Cc4ccc(Br)cc4)sn3)CC2)cc(OC)c1OC [Compound B708] | 
44 |  |  | 8 | 8 | COc1cc(C(=O)N2CCN(Cc3nccc(NC[C@@H]4CCCN4Cc4ccc(Br)cc4)n3)CC2)cc(OC)c1OC [Compound B709] | 
45 |  |  | 0.096 | 0.096 | COc1cc(C(=O)N2CCN(Cc3nsc(NC[C@@H]4CCCCN4Cc4ccc(Br)cc4)n3)CC2)cc(OC)c1OC [Compound B710] | 
46 |  |  | 0.012 | 0.012 | COc1cc(C(=O)N2CCN(Cc3nsc(NC[C@@H]4C[C@@H](O)CN4Cc4ccc(Br)cc4)n3)CC2)cc(OC)c1OC [Compound B802] | 
47 |  |  | 0.021 | 0.021 | COc1cc(C(=O)N2C[C@H](C)N(Cc3nsc(NC[C@@H]4CCCN4Cc4ccc(Br)cc4)n3)C[C@@H]2C)cc(OC)c1OC [Compound B804] | 
48 |  |  | 0.014 | 0.014 | COc1cc(C(=O)N2CCN([C@H](C)c3nsc(NC[C@@H]4CCCN4Cc4ccc(Br)cc4)n3)CC2)cc(OC)c1OC [Compound B805] | 
49 |  |  | 0.012 | 0.012 | COc1cc(C(=O)N2CCN([C@@H](C)c3nsc(NC[C@@H]4CCCN4Cc4ccc(Br)cc4)n3)CC2)cc(OC)c1OC [Compound B806] | 
50 |  |  | 0.044 | 0.044 | COc1cc(C(=O)N2CCN(Cc3nsc(NC[C@@H]4C[C@@H](O)CN4[C@@H](C)c4ccc(Br)cc4)n3)CC2)cc(OC)c1OC [Compound B910] | 
51 |  |  | 0.033 | 0.033 | COc1cc(C(=O)N2C[C@H](C)N(Cc3nsc(NC[C@@H]4C[C@@H](O)CN4Cc4ccc(Br)cc4)n3)C[C@@H]2C)cc(OC)c1OC [Compound B911] | 
